SMILES strings stand for the structures.

Broadly, the IC50 is the concentration that inhibits the measured activity by half. A lower IC50 goes with greater potency.

The target of test [1] is Trans-2-enoyl-ACP reductase II (Streptococcus pneumoniae, UniProt Q9FBC5). The test is described as follows: Enzyme Inhibition Assay. To be noted: 30 °C. How it is done:
(§1) Assays were carried out in half-area, 96-well microtiter plates. Compounds were evaluated in assay mixtures containing components specific for each enzyme. Inhibitors were varied over the range 0.01-10 uM. The consumption of NAD(P)H was monitored for 20 min at 30 °C by following the change in absorbance at 340 nm. IC50 values were estimated from a fit of the initial velocities to a standard equation.

In test [2] the target is T1, Enoyl-[acyl-carrier-protein] reductase [NADH] FabI (Escherichia coli (strain K12), UniProt P0AEK4).
T1 sequence (P0AEK4 whole entry): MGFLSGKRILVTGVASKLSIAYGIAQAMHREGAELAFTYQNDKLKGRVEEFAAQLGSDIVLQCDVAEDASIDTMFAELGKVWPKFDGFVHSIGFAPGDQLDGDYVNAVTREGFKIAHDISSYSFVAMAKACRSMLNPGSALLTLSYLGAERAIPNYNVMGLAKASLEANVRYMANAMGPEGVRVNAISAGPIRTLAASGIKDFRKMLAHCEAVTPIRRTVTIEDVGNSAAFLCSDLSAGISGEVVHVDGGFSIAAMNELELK
The test is described as follows: Enzyme Inhibition Assay. The conditions noted are these: pH 6.5; 30 °C. How it is done: as §1

Trans-2-enoyl-ACP reductase II, sequence (Q9FBC5 whole entry): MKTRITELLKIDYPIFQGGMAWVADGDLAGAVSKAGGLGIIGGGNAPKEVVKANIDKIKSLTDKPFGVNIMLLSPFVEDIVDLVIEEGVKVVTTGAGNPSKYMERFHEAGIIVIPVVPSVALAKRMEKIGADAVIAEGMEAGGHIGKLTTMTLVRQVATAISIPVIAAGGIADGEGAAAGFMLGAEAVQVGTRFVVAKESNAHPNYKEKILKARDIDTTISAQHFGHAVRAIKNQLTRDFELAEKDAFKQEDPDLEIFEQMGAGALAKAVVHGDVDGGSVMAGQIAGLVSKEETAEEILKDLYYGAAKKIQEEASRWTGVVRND

`Oc1cc(Cl)ccc1Oc1ccc(Cl)cc1Cl` showed an IC50 in test [1] greater than 30 µM.
`Cc1cccc2c(CN(C)C(=O)/C=C/c3cnc4c(c3)CCC(=O)N4)c(C)n(C)c12` [(2E)-N-methyl-3-(7-oxo-5,6,7,8-tetrahydro-1,8-naphthyridin-3-yl)-N-[(1,2,7-trimethyl-1H-indol-3-yl)methyl]prop-2-enamide]: the IC50 in test [2] was less than 0.07 µM; in test [1], greater than 30 µM.
In turn, `Cc1[nH]c2ccccc2c1CN(C)C(=O)/C=C/c1cnc2c(c1)CCC(=O)N2` [(2E)-N-methyl-N-[(2-methyl-1H-indol-3-yl)methyl]-3-(7-oxo-5,6,7,8-tetrahydro-1,8-naphthyridin-3-yl)prop-2-enamide] came in with an IC50 in test [2] of less than 0.06 µM.
Take `Cc1c(CN(C)C(=O)/C=C/c2cnc3c(c2)CCC(=O)N3)c2ccccc2n1C` [(E)-N-(1,2-Dimethyl-1H-indol-3-ylmethyl)-N-methyl-3-(7-oxo-5,6,7,8-tetrahydro-1,8-naphthyridin-3-yl)acrylamide]: in test [1], the IC50 was greater than 30 µM.

(Values after BindingDB's records for doi:10.1021/jm0204035 (Glaxosmithkline, 2003).)
